Measured values published in patent US20240335421A1, “ANETHOLE TRITHIONE FOR THE TREATMENT OF VASCULITIDES” (FRÉDÉRIC MARIN, priority 2021, published 2024).

Columns and labels:
[1] = system: TNF-α production in LPS-activated macrophages; assay: TNF-α production by LPS-activated human macrophages (ELISA); format: cell-based; conditions: ATT 10 μM, LPS 1 μg/mL, 48 hours, FIG. 1A
Experimental: (§1) CD14^+ human macrophages isolated from healthy donors were cultured with LPS (1 μg/mL) and ATT (10 μM) for 48 hours. At the end of the culture, the supernatants were collected and cytokine production was evaluated.
(§2) Production of TNF-α was measured by ELISA. Production of TNF-α and IL-10 were measured using a multiplex detection technique.

[2] = system: TNF-α production by LPS-activated human macrophages; assay: TNF-α production by LPS-activated human macrophages (multiplex detection); format: cell-based; conditions: ATT 10 μM, LPS 1 μg/mL, 48 hours, multiplex assay, FIG. 1B
Experimental: as §1, §2

[3] = system: IL-10 production by LPS-activated human macrophages; assay: IL-10 production by LPS-activated human macrophages (multiplex detection); format: cell-based; conditions: ATT 10 μM, LPS 1 μg/mL, 48 hours, multiplex assay, FIG. 1C
Experimental: as §1, §2

pulmonary arterial rings [4] = assay: 5-HT contractile reactivity of pulmonary arterial rings with endothelium dysfunction (organ bath); parameters: species or system Wistar rats; conditions: ATT 10 μM, 30 minutes preincubation
Experimental: (§3) Intrapulmonary arteries of the first order (IPA1) of Wistar rats (male, 300 g) were divided into short tubular segments with an external diameter of ≈1.5-2 mm and used for isometric contraction measurement.
(§4) Arterial rings were mounted in isolated organ bath systems (EMKA Technologies), containing Krebs solution (118 mM NaCl, 4.7 mM KCl, 1.2 mM MgSO4, […], 1.2 mM KH2PO4, 2.5 mM CaCl2), and 11 mM D-glucose, pH 7.4) at 37° C. and bubbled continuously with […].
(§5) Arterial rings were stretched to a basal tension of 0.8 to 1.0 g according to their diameter. Tissues were allowed to equilibrate for 1 hour in Krebs solution and washed out every 15 minutes. A high KCl solution (80 mM) was applied in order to obtain a reference contraction used to normalize subsequent contractile responses.
(§6) At the end of the experiment, endothelial function was tested on each ring by examining the relaxation induced by carbamylcholine, a potent vascular relaxing agent (100 μM; Sigma) on 1 μM or 30 nM Phe-induced pre-constricted pulmonary arterial rings. Passive and active mechanical properties were assessed using transducer systems, coupled to IOX2 software (v2.10.8, EMKA technologies, Paris, France) in order to facilitate data acquisition and analysis. Data were then analyzed using two-way ANOVA with Bonferroni post-tests (Prism 5 v.5.01).
Contractile responses were tested by constructing a cumulative concentration-response curve (CCRC) to 5-hydroxytryptamine [5-HT] (10 nM to 100 μM; Sigma). When indicated, tissues were preincubated during 30 minutes with ATT (10 μM), and then CCRC to 5-HT was performed in the presence or absence of the drug.
Evaluation of the role of endothelium on ATT effect was assessed using N^ω-nitro-L-arginine methyl ester [L-NAME] (100 μM, 30 minutes preincubation; Sigma) to inhibit nitric oxide-dependent relaxation, or 3-[(3-cholamidopropyl) dimethylammonio]-1-propanesulfonate [CHAPS] (0.3% in water, perfusion before mounting; Sigma) to physically damage the endothelium.

pulmonary arterial rings [5] = assay: Relaxation of phenylephrine pre-constricted pulmonary arterial rings (organ bath); parameters: species or system Wistar rats
Experimental: as §3, §4, §5
Relaxation was assessed by injecting ATT (10 μM) on phenylephrine [Phe] (30 nM; Sigma) pre-constricted pulmonary arterial rings when contraction reached its steady-state.
as §6, with “The role” for “At the end”, “endothelium on ATT relaxant effect was assessed as aforementioned with L-NAME pre-incubation or CHAPS perfusion. Endothelial” for “the experiment, endothelial”, “100 μM carbamylcholine (Sigma)” for “carbamylcholine, a potent vascular relaxing agent (100 μM; Sigma)”

[6] = system: pulmonary arterial rings from rats with PH; assay: Chronic endothelium dysfunction by hypobaric hypoxia, in vivo minipump treatment, ex vivo 5-HT reactivity; conditions: 3 weeks hypobaric hypoxia, ATT 0.7 mg/mL by abdominal minipump, no ATT in the organ bath, FIG. 4
Experimental: In order to investigate the protective effects of ATT on chronic endothelium damage, rats were housed during 3 weeks in hypobaric hypoxia chambers (50 kPa or 10% O2).
Continuous treatment was induced through a minipump placed in the abdominal cavity to deliver ATT (0.7 mg/mL) or its placebo (sulfobutylether beta-cyclodextrin) during the whole hypoxia.
After euthanasia of the animal, pulmonary arterial rings were placed in an organ bath and the reactivity of the vessel was investigated by using cumulative concentration-response curve with 5-HT (10 nM to 100 μM). This ex vivo part of the study was conducted without any addition of ATT in the organ bath, meaning that the effect was exclusively related to the chronic in vivo treatment through the minipump.

[7] = system: Adult human primary ventricular cardiomyocytes; assay: Human primary cardiomyocyte contractility assay after exposure to Kawasaki patient serum; format: cell-based; conditions: 12 hours exposure to KD serum + ATT 1 μM
Experimental: Adult human primary ventricular cardiomyocytes were isolated from two healthy donors by AnaBios (San Diego, USA), using their CardioPRIME™ proprietary protocol.
These isolated cardiomyocytes were exposed for 12 hours to serum obtained from Kawasaki patients in acute crisis (between 2-6 days), supplemented or not with 1 μM of ATT. In parallel, cardiomyocytes were exposed to serum from Wegener's disease patients or from convalescent Kawasaki patients, under the same conditions.
The CardioPRIME™ protocol, run on a MultiCell platform by IonOptix, allows to measure several parameters. Upon electrical field stimulation to elicit contractions (tracked by the shape change in individual cardiomyocytes under optical bright field microscopy), the contractility transients could be analyzed for changes in contraction in the different conditions (amplitude of sarcomere shortening, peak height, maximum sarcomere departure velocity, maximum sarcomere return velocity, and decay time to 30% and 90% relaxation).

SMILES | production of TNF-α vs. LPS-activated condition [1] | TNF-α level in LPS-activated human macrophages [2] | production of IL-10 [3] | 5-HT concentration response curve and maximum efficacy in presence of ATT and CHAPS (pulmonary arterial rings [4]; CHAPS 0.3%, compared with normal endothelium function, FIG. 2A) | 5-HT concentration response curve with L-NAME (pulmonary arterial rings [4]; L-NAME 100 μM, FIG. 2B) | maximum effect of 5-HT with L-NAME (pulmonary arterial rings [4]; L-NAME 100 μM, FIG. 2B) | amplitude of relaxation, ATT vs. CHAPS+ATT (pulmonary arterial rings [5]; ATT 10 μM on 30 nM phenylephrine pre-constricted rings, FIG. 3) | effect of pre-treatment with L-NAME or CHAPS on the relaxation mediated by the substance (pulmonary arterial rings [5]; ATT 10 μM on 30 nM phenylephrine pre-constricted rings, L-NAME 100 μM or CHAPS 0.3%, FIG. 3) | hyper-reactivity of the vessel induced by 5-HT after chronic hypoxia [6] | loss of contractility (peak height, sarcomere shortening, maximum sarcomere departure velocity) ([7]; FIGS. 6A-C) | loss of relaxation (maximum sarcomere return velocity, decay time to 90% and 30% relaxation) ([7]; FIGS. 6D-F) | relaxation under endothelium dysfunctions induced by L-NAME or CHAPS (pulmonary arterial rings [5]; carbamylcholine 100 μM, Phe pre-constricted rings, data not shown)
COc1ccc(-c2cc(=S)ss2)cc1 [ATT, 5-(4-methoxyphenyl)-3H-1,2-dithiole-3-thione] | −88% | −51.2% | −60.3% | not significantly different | markedly shifted | significantly reduced | similar | failed 1 to affect | fully abolished | prevent this loss of contractility | prevent the loss of relaxation | –
C[N+](C)(C)CCOC(N)=O.[Cl-] [carbamylcholine] | – | – | – | – | – | – | – | – | – | – | – | fully abolished
